Data taken from patent US20190352341A1, “MODIFIED PEPTIDES AND THEIR USE FOR TREATING SYSTEMIC LUPUS ERYTHEMATOSUS” (IMMUPHARMA FRANCE SA, priority 2018, published 2019).
Values joined by “and” are separate entries in the source; they are usually repeats but may differ in a detail not shown here. Identical values can stand only once. Numbered stars: 1 amine (or outer) side, 2 acyl side, 3 side chain; on linkers, the order of the positions; unused ones are H or OH. Square brackets hold non-standard residues; d marks the D form. Peptide text beside a SMILES is read from it. ξ: configuration not given here. X1 = CSCC[C@H](NC(=N)[C@H](Cc1c[nH]cn1)N[*:1])C(=O)[*:2]; pS = N[C@@H](COP(=O)(O)O)C(=O)O; Ile(3ξ) = CCC(C)[C@H](N)C(=O)O

How the values were obtained:
[1] = system: Balb/c mice; assay: 15-day ovalbumin-induced airway hypereosinophilia model, BAL cells; assay type: in vivo, mouse; set-up: Eosinophils / Neutrophils / T cells / B cells: unit not given here; details: for B cells / Eosinophils / Macrophages / Neutrophils / T cells / Total cells: BAL
Protocol: The P140 phosphopeptide was solubilized in sterile water (Braun) and 10× concentrate sterile saline was added to adjust osmolarity to 300 mosm. Osmolarity was controlled with a micro osmometer (Loser, type 15) and validated (302 mosm).
The P140 phosphopeptide was used in vivo at the dose of 4 mg/kg by intranasal (i.n.) and intravenous (i.v.) routes. Control animals received equivalent volumes (1 ml/kg for i.n. and 2 ml/kg for i.v.) of saline (Table 6).
Nine-week-old male Balb/c mice were sensitized by intraperitoneal (i.p.) injections of a mixture containing 50 μg OVA (Sigma-Aldrich) and 2 mg alum (Sigma-Aldrich) in 0.1 ml saline. Mice were challenged by i.n. administration of 25 μl of OVA on day 5, then 25 μl of OVA and/or saline on day 12, 13 and 14. Mice were treated by i.v. injection (2 ml/kg) or i.n. administration (1 ml/kg) of P140 or solvent on day 9 (See FIG. 12).
[…] Performing Bronchoalveolar Lavage in the Mouse. Curr Protoc Mouse Biol 2:167-175). Mice were anaesthetized IP (Ketamine 150 mg/kg-Xylasine 10 mg/kg). Blood was collected from the heart, centrifuged at 10,000 g for 2 min and serum stored at −20° C. After semi-excision of the trachea, a plastic cannula was inserted, and airspace washed with 0.5 ml of 0.9% NaCl injected with a 1 ml syringe. This procedure was performed 10 times. The initial concentrated supernatant of the 2 first lavages (volume=2×0.5 ml administered, ˜0.5 ml recovered) was collected for cytokine measurements. The remaining BAL fluid was centrifuged (300 g for 5 min, 4° C.), and cell pellets pooled. The cell pellet was suspended in 500 μl of 0.9% NaCl and used for total cell counts evaluated on a Muse® Cell Analyser. Differential cell counts were assessed by flow cytometry (LSRII® cytometer, BD Bioscience). BAL cells were added with FCblock (0.5 μl, 553142, BD Bioscience) in a black microplate, incubated for 20 min at room temperature. Then, marker antibodies were added: CD11c-FITC (557400, BD bioscience), Gr-1-Pe-eFluor610 (61-5931-82, eBioscience), CD11b-APC-Cy7 (557657, BD bioscience), CD45-AlexaFluor700 (103128, BioLegend), CD3-BV605 (564009, BD bioscience), CD19-PE-Cy7 (552854, BD bioscience). Antibodies were incubated with BAL cells for 30 min at room temperature before DAPI (5 μl, BD bioscience) addition, and flow cytometry was performed immediately.
Data are presented as means±SEM. Differences between groups were tested for statistical significance using one-way ANOVA followed by Tukey's post-test. For statistical analysis, control groups 1, 2 and 3 were pooled.

[2] = system: C57BL/6 mice; assay: DSS-induced mouse model of colonic inflammation; assay type: in vivo
Excerpt: Normal mice (C57BL/6; 7 week-old; males) have received the P140 peptide ([…], iv route; 10 mice) or saline only (control group; 10 mice) at days −2 and −1. At day 0, dextran sodium sulfate (DSS; 2-3%) was administrated to induce the disease.
Animals were examined every day for body weight loss, stool consistency, diarrhea, and blood in the feces. The animals were sacrificed around day 14 or at any time if they are very sick (loss >25% body weight). Statistics: Mann-Whitney (exact)

[3] = system: MRL/lpr mice; assay: MRL/lpr mouse model of Gougerot-Sjögren syndrome (salivary glands); assay type: in vivo
Protocol: In this study MRL/lpr female 11-12 week old mice were used with 10 mice per group for statistical analysis. Each mouse received a single injection by retro-orbital, 100 μg of peptide P140 of 100 μl in […] NaCl. After 5 days, the mouse blood was collected in heparinized tube and salivary glands (GSS) were removed and placed in Eppendorf tubes containing PBS pH 7.4.
The number of foci site (FS) is determined for each mouse. A focus is defined as an aggregate of 50 or more cells.
The level of inflammation SG is determined semiquantitatively by a scoring system (0-3 scale): Grade 0: no inflammatory cells; Grade 1: few perivascular inflammatory and periductal Infiltrates (<100 cells); Grade 2: moderate number of perivascular inflammatory and periductal Infiltrates (100-500 cells); Grade 3: extensive inflammation with inflammatory foci broad (>500 cells).
Cells of total salivary glands stained with fluorescently were labeled antibodies for 40 min at 4° C., Were Collected data by FACSCalibur.
The weight of salivary glands Was Measured after-excision. DNase I (1 mg/ml) and collagenase D (50 μg/ml) were used to digest the salivary glands. Total cell counts were evaluated after the digestion.
The MRL/lpr mice (10 mice per arm) were injected with peptide P140 (100 μl/mouse iv). Five days after injection the mice were sacrificed and SGs collected as indicated above. The tissue was cut by the cryostat sections of 5 μm. The sections were labeled with hematoxylin/eosin staining is the method most frequently used in tissue histology. The level of inflammation and the number of FS were determined (FIGS. 19 and 20). Representative pictures are from sample control group 4 and group Treated sample (Bar 500 μm).

[4] = system: MRL/lpr B cells; details: cited from earlier work
[5] = OVA challenge, P140-IN 4 mg/kg day 9, individual mice NL415-2_6 to _20
[6] = OVA challenge, P140-IN, 4 mg/kg day 9, individual mice NL415-2_12 to _22
[7] = saline challenge, P140-IN 4 mg/kg day 9, individual mice NL415-2_2, _8
[8] = saline challenge, P140-IN, 4 mg/kg day 9, individual mice NL415-2_4, _15
[9] = i.v. 4 mg/kg, OVA-challenged mice
[10] = P140 iv at days −2 and −1, DSS from day 0, vs saline group
[11] = 5 days after one single iv injection, flow cytometry

Question: With `CCC(C)[C@H](NC(=O)[C@H](Cc1ccccc1)NC(=O)[C@H](C)NC(=O)[C@H](Cc1ccc(O)cc1)NC(=O)CNC(=O)[C@H](CCCNC(=N)N)NC(=O)[C@@H]1CCCN1C(=O)[C@H](CCCCN)NC(=O)CNC(=O)[C@H](COP(=O)(O)O)NC(=O)[C@H](CCCNC(=N)N)NC(=O)[C@H](CCCCN)NC(=O)[C@H](CO)NC(=O)[C@H](Cc1ccc(O)cc1)NC(=O)[C@@H](NC(=O)[C@H](CCSC)NC(=N)[C@H](Cc1c[nH]cn1)NC(=O)[C@@H](NC(=O)[C@@H](N)CCCNC(=N)N)C(C)CC)C(C)C)C(=O)N[C@@H](CCC(=O)O)C(=O)N[C@@H](Cc1ccc(O)cc1)C(=O)O` (some centres unmarked) [Compound P140] (H-R[Ile(3ξ)][X1]VYSKR[pS]GKPRGYAF[Ile(3ξ)]EY-OH) as the molecule, how does the B cells [1, 5] read?
Answer: The B cells was 25 606 and 32 251 and 26 562 and 23 383 and 33 156 and 13 236.

Question: And the Eosinophils [1, 5]?
Answer: The Eosinophils was 490 306 and 497 948 and 737 671 and 839 841 and 792 249 and 615 171.

Question: What about the Macrophages [1, 5] of the same molecule?
Answer: Its Macrophages is 271 110 and 322 340 and 247 391 and 538 954 and 436 210 and 286 509.

Question: What about the Neutrophils [1, 5] of the same molecule?
Answer: The Neutrophils was 57 542 and 60 787 and 62 354 and 95 173 and 47 346 and 65 366.

Question: What about the T cells [1, 5] of the same molecule?
Answer: The T cells was 44 036 and 61 800 and 73 159 and 118 360 and 101 951 and 61 293.

Question: What about the Total cells [1, 5] of the same molecule?
Answer: Its Total cells is 862 995 and 942 875 and 1 120 576 and 1 592 328 and 1 377 755 and 1 028 339.

Question: What about the B cells [1, 6] of the same molecule?
Answer: Its B cells is 10 219 and 15 209 and 14 027 and 17 417 and 11 003 and 10 922.

Question: And the Eosinophils [1, 6]?
Answer: Its Eosinophils is 425 928 and 272 763 and 473 105 and 470 027 and 327 186 and 429 469.

Question: What about the Macrophages [1, 6] of the same molecule?
Answer: The Macrophages was 439 265 and 442 055 and 244 523 and 293 070 and 342 134 and 379 565.

Question: And the Neutrophils [1, 6]?
Answer: Its Neutrophils is 42 783 and 21 442 and 59 616 and 76 867 and 40 275 and 31 756.

Question: What about the T cells [1, 6] of the same molecule?
Answer: The T cells was 41 744 and 43 881 and 32 677 and 55 502 and 28 857 and 45 030.

Question: What about the Total cells [1, 6] of the same molecule?
Answer: Its Total cells is 949 720 and 780 142 and 809 921 and 895 467 and 738 452 and 885 821.

Question: What about the B cells [1, 7] of the same molecule?
Answer: The B cells was 112 and 242.

Question: And the Eosinophils [1, 7]?
Answer: The Eosinophils was 168 and 103.

Question: What about the Macrophages [1, 7] of the same molecule?
Answer: Its Macrophages is 388 102 and 434 029.

Question: And the Neutrophils [1, 7]?
Answer: The Neutrophils was 56 and 61.

Question: And the T cells [1, 7]?
Answer: Its T cells is 4 135 and 4 180.

Question: And the Total cells [1, 7]?
Answer: Its Total cells is 392 461 and 438 573.

Question: And the B cells [1, 8]?
Answer: The B cells was 70 and 266.

Question: What about the Eosinophils [1, 8] of the same molecule?
Answer: The Eosinophils was 110 and 166.

Question: And the Macrophages [1, 8]?
Answer: Its Macrophages is 335 658 and 335 200.

Question: What about the Neutrophils [1, 8] of the same molecule?
Answer: The Neutrophils was 259 and 133.

Question: And the T cells [1, 8]?
Answer: The T cells was 5311 and 4 790.

Question: What about the Total cells [1, 8] of the same molecule?
Answer: Its Total cells is 341 738 and 340 389.

Question: What about the “Number of cells recovered in BAL fluid as compared to vehicle (saline)” value ([1]; i.n. or i.v., control mice challenged with saline) of the same molecule?
Answer: The value was “little effect per se”.

Question: What about the “Inflammatory cell recruitment in BAL” value ([1]; i.n. route, OVA-challenged mice) of the same molecule?
Answer: Its value is “little effect”.

Question: What about the “B cells recruitment in BAL, change vs OVA group” value [1, 9] of the same molecule?
Answer: The value was −42%.

Question: What about the “Eosinophil recruitment in BAL, change vs OVA group” value [1, 9] of the same molecule?
Answer: The value was −50%.

Question: And the “T cells recruitment in BAL, change vs OVA group” value [1, 9]?
Answer: The value was −66%.

Question: What about the “Neutrophils recruitment in BAL, change vs OVA group” value ([1]; i.v. 4 mg/kg, OVA-challenged mice, not significant) of the same molecule?
Answer: The value was −38%.

Question: What about the Body weight [2, 10] of the same molecule?
Answer: Its Body weight is “No difference”.

Question: And the Colon size [2, 10]?
Answer: The Colon size was “significant increase”.

Question: What about the “DAI (disease activity index)” value [2, 10] of the same molecule?
Answer: The value was “Little difference”.

Question: What about the “Day at which blood appeared in the feces” value ([2]; control groups day +6) of the same molecule?
Answer: The value was “+8 day”.

Question: What about the “Lymphocytic infiltration in the SGs” value ([3]; 5 days after one single administration, hematoxylin/eosin) of the same molecule?
Answer: Its value is “significantly reduced”.

Question: What about the “Weight of salivary glands (SGs)” value ([3]; 5 days after one single iv injection) of the same molecule?
Answer: The value was “no statistically significant effect”.

Question: What about the “CD4+ T cells in SGs” value [3, 11] of the same molecule?
Answer: The value was “decreased”.

Question: What about the “Total number of B cells in SGs” value [3, 11] of the same molecule?
Answer: Its value is “no statistically significant effect”.

Question: And the “Total number of cells present in the SGs” value [3, 11]?
Answer: The value was “no apparent effect”.

Question: What about the “Autophagy markers SQSTM1 and MAP1LC3 in MRL/lpr B cells” value ([4]; after P140 treatment (Page et al., 2011)) of the same molecule?
Answer: The value was “accumulation”.

Question: What about the “Expression of HSPA8 and LAMP-2A in MRL/lpr B cells” value ([4]; after treating mice with P140 peptide (Page et al., 2011; Macri et al.)) of the same molecule?
Answer: Its value is “down-regulated”.
